This note sets out measurements from patent US7064120B2, “Tricyclic pyridyl carboxamides and derivatives thereof tocolytic oxytocin receptor antagonists” (Wyeth, priority 2001, dated 2006).

What is called inhibition is the percentage by which the read-out fell short of the control.

The target in this experiment is T1, human oxytocin receptor (Homo sapiens, UniProt P30559).
T1 construct: host or cells: CHO cells, stably transfected (pcDNA3.1 vector)
T1 sequence (P30559 1-389): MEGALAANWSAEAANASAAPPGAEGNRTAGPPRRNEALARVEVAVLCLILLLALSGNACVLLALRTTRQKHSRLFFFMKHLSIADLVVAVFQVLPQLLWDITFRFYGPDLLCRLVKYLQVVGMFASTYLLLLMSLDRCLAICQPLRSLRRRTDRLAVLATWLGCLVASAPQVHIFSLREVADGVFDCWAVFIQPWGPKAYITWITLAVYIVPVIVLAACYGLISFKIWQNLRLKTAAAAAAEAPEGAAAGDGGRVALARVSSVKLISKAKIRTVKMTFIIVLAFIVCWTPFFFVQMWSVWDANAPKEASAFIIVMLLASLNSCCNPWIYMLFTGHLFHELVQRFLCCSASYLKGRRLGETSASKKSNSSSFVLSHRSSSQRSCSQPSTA
Put plainly: Oxytocin binding in CHO cell membranes expressing human oxytocin receptors ([3H]oxytocin radioligand binding). As to conditions: 100 nM, read-out: OT % inhibition @ 100 nM. In short, it runs like this:
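Values are % inhibition at one concentration or nM IC50 from [3H]oxytocin displacement. Membranes from human oxytocin receptor CHO cells, 25–50 μg protein/well, 60 min at room temperature, pH 7.4 Tris buffer with protease inhibitors; bound label by filtration and scintillation counting.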
In the case of `COc1ccccc1-c1ccc(C(=O)N2Cc3ccc(C(=O)NCc4cccnc4)n3Cc3ccccc32)cc1OC` [Example 45, 10-[(2,2′-Dimethoxy-[1,1′-biphenyl]-4-yl)carbonyl]-N-(3-pyridinylmethyl)-10,11-dihydro-5H-pyrrolo[2,1-c][1,4]benzodiazepine-3-carboxamide], the inhibition at 0.1 µM worked out at 37%.
The figure for `COc1cc(C(=O)N2Cc3ccc(C(=O)N(C)CCc4ccncc4)n3Cc3ccccc32)ccc1-c1cccc2ccccc12` [Example 134, 10-[3-Methoxy-4-(naphthalen-1-yl)benzoyl]-N-methyl-N-[2-(4-pyridinyl)ethyl]-10,11-dihydro-5H-pyrrolo[2,1-c][1,4]benzodiazepine-3-carboxamide] is 88%.
For the compound `Cc1cc(C(=O)N2Cc3ccc(C(=O)N(C)CCc4ccncc4)n3Cc3ccccc32)ccc1-c1ccccc1C(F)(F)F` [Example 137, N-Methyl-10-{[2-methyl-2′-trifluoromethyl-[1,1′-biphenyl]-4-yl]carbonyl}-N-[2-(4-pyridinyl)ethyl]-10,11-dihydro-5H-pyrrolo[2,1-c][1,4]benzodiazepine-3-carboxamide], the inhibition at 0.1 µM stood at 95%.
Regarding `COc1ccccc1-c1ccc(C(=O)N2Cc3ccc(C(=O)NCc4ccccn4)n3Cc3ccccc32)cc1C` [Example 24, 10-[(2′-Methoxy-2-methyl-[1,1′-biphenyl]-4-yl)carbonyl]-N-(2-pyridinylmethyl)-10,11-dihydro-5H-pyrrolo[2,1-c][1,4]benzodiazepine-3-carboxamide], the inhibition at 0.1 µM amounted to 50%.
Regarding `COc1ccccc1-c1ccc(C(=O)N2Cc3ccc(C(=O)NCc4cccnc4)n3Cc3ccccc32)cc1C` [Example 36, 10-[(2′-Methoxy-2-methyl-[1,1′-biphenyl]-4-yl)carbonyl]-N-(3-pyridinylmethyl)-10,11-dihydro-5H-pyrrolo[2,1-c][1,4]benzodiazepine-3-carboxamide], the inhibition at 0.1 µM worked out at 46%.
`O=C(NCc1cccnc1)c1ccc2n1Cc1ccccc1N(C(=O)c1ccc(-c3cccc4ccccc34)cc1Cl)C2` [Example 47, 10-[2-Chloro-4-(naphthalen-1-yl)benzoyl]-N-(3-pyridinylmethyl)-10,11-dihydro-5H-pyrrolo[2,1-c][1,4]benzodiazepine-3-carboxamide]: the inhibition at 0.1 µM turned out to be 1%.
The figure for `COc1cccc(-c2cc(OC)c(C(=O)N3Cc4ccc(C(=O)NCCc5ccccn5)n4Cc4ccccc43)cc2Cl)c1` [Example 56, 10-[(6-Chloro-3,3′-dimethoxy-[1,1′-biphenyl]-4-yl)carbonyl]-N-[2-(2-pyridinyl)ethyl]-10,11-dihydro-5H-pyrrolo[2,1-c][1,4]benzodiazepine-3-carboxamide] is 31%.
The figure for `COc1cccc(-c2ccc(C(=O)N3Cc4ccc(C(=O)NCc5cccnc5)n4Cc4ccccc43)cc2OC)c1` [Example 46, 10-[(2,3′-Dimethoxy-[1,1′-biphenyl]-4-yl)carbonyl]-N-(3-pyridinylmethyl)-10,11-dihydro-5H-pyrrolo[2,1-c][1,4]benzodiazepine-3-carboxamide] is 31%.
